Experimental data: patent US8178699B2, “Modulators of CCR9 receptor and methods of use thereof” (Pfizer Inc., priority 2008, dated 2012)
Where a name gives a salt, the structure may show the parent alone.

Target: T1, human CCR9 receptor (Homo sapiens, UniProt P51686)
T1 construct: expressed in transfected cells
T1 sequence (P51686 1-369): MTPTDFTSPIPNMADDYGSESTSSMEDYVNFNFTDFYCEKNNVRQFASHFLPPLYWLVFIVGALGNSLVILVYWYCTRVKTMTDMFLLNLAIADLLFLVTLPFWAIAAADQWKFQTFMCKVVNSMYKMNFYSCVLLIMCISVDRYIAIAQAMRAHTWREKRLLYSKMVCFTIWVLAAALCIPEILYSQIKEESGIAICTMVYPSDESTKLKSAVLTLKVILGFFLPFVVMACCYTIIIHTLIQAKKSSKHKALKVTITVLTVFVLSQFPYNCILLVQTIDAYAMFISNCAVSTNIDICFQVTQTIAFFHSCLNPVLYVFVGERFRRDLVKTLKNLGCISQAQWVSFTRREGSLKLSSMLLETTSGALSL
Test: CCR9 FLIPR/FlexStation Assay (inhibition of TECK induced calcium mobilization)
Type: cell-based
Details: CCR9 antagonist activity; TECK induced calcium mobilization in CCR9-Flp-CHO cells stably over expressing human CCR9; rhTECK at EC70; read-out: Binding IC50
Description: Exemplary methods are described in US Publication Nos. US2004/0180892 and US2005/0049286, which are incorporated herein by reference. An exemplary assay for determining CCR9 antagonist activity of the compounds provided herein is CCR9 FLIPR/FlexStation Assay. In certain embodiments, the following protocol is used for the assay:
CCR9 FLIPR/FlexStation Assay Protocol
Calcium assay in FLIPR/FlexStation determines inhibitors of TECK induced calcium mobilization in CCR9-Flp-CHO cells that stably over express human CCR9 receptor. CCR9-Flp-CHO cells are seeded at 25,000 cells/well in a clear bottom, black wall 96-well plate (Greiner #655090) one day prior to assay. Cells are grown in a tissue culture incubator at 37° C. with 5% CO2 for 18 to 24 hours.
Wash buffer and dye loading buffer are prepared fresh each time the assay is performed. Wash buffer is prepared according to the following protocol: 20 ml 10×HBSS (Invitrogen Gibco #14065-056), 4 ml 1M HEPES (Sigma H3784), 174 ml sterile deionized water; then add 140 mg probenecid (Sigma P8761) dissolved in 2 ml 1M NaOH (Fisher S318) to solution and pH to 7.4. This wash buffer contains 1×HBSS, 20 mM HEPES and 2.5 mM probenecid. For one 96-well plate, dye loading buffer is prepared as following: 11 ml wash buffer, 44 μl Fluo-4/pluoronic acid mix (prepared from 22 μL aliquot of 2 mM Fluo-4 (Molecular Probes F14202, 1 mg/tube)+22 μl 20% pluronic F-127 (Molecular Probes P3000MP).
Cells are loaded with dye according to the protocol below:
1. Prepare wash buffer with 1×HBSS/HEPES at room temperature
2. Prepare loading buffer (keep in dark)
3. Aspirate culture media and wash with 100 μl wash buffer per well×1
4. Add 100 μl dye loading buffer to each well
5. Incubate at 37° C. for 30 minutes
6. Aspirate loading buffer
7. Wash with 100 μl wash buffer per well×3
8. Add 100 μl wash buffer per well
9. Incubate at 37° C. for 30 minutes
10. Assay plate with FLIPR or FlexStation
10 mM stock compounds in DMSO are prepared and diluted in DMSO to 1 mM. Compounds are diluted in wash buffer to make 8 point series dilutions containing same final concentration of DMSO (1%). Compounds are tested in duplicate wells for each point. Ligand rhTECK (R&D Systems 334-TK) was diluted to 6× of its EC70 with wash buffer. Appropriate amount of 6× ligand is added to each well. Data is analyzed using XLfit3 software to calculate IC50 value of antagonist activity for each compound.
CCR9 antagonist activity of exemplary compounds was determined using CCR9 FLIPR/FlexStation Assay as described in Section 4.4 and is provided in Table 1 below. The IC50 for the compounds are represented as follows: A≦100 nM; B>100-500 nM; C>500 nM.

Row | IC50 | SMILES
1 | > 500 nM | CCc1ccccc1-c1cccc(S(=O)(=O)Nc2ccsc2C(=O)O)c1 [Example 39, 3-(2′-ethylbiphenyl-3-ylsulfonamido)thiophene-2-carboxylic acid, disodium salt]
2 | 100 to 500 nM | O=C(O)c1sccc1NS(=O)(=O)c1ccc2c(c1)CCCC2 [Example 21, 3-(5,6,7,8-tetrahydronaphthalene-2-sulfonamido)thiophene-2-carboxylic acid, disodium salt]
3 | > 500 nM | CC(C)c1ccccc1-c1cccc(S(=O)(=O)Nc2ccsc2C(=O)O)c1 [Example 43, 3-(2′-isopropylbiphenyl-3-ylsulfonamido)thiophene-2-carboxylic acid, disodium salt]
4 | 100 to 500 nM | CC(C)(C)c1ccc(S(=O)(=O)Nc2ccsc2C(=O)O)c(O)c1 [Example 9, 3-(4-tert-butyl-2-hydroxyphenylsulfonamido)thiophene-2-carboxylic acid, trisodium salt]
5 | > 500 nM | CC(C)(C)c1ccc(S(=O)(=O)Nc2ccsc2C(=O)O)c(-c2cccc(Cl)c2)c1 [Example 53, 3-(5-tert-butyl-3′-chlorobiphenyl-2-ylsulfonamido)thiophene-2-carboxylic acid, disodium salt]
6 | > 500 nM | O=C(O)c1sccc1NS(=O)(=O)c1ccc(F)cc1C1CCCC1 [Example 35, 3-(2-cyclopentyl-4-fluorophenylsulfonamido)thiophene-2-carboxylic acid, disodium salt]
7 | > 500 nM | CN(C)c1ccc(-c2cc(C(C)(C)C)ccc2S(=O)(=O)Nc2ccsc2C(=O)O)cc1 [Example 4, 3-[5-tert-butyl-4′-(dimethylamino)biphenyl-2-ylsulfonamido]thiophene-2-carboxylic acid, disodium salt]
8 | > 500 nM | Cc1ccccc1-c1cccc(S(=O)(=O)Nc2ccsc2C(=O)O)c1 [Example 22, 3-(2′-methylbiphenyl-3-ylsulfonamido)thiophene-2-carboxylic acid, disodium salt]
9 | ≤ 100 nM | CC(C)(C)c1ccc(S(=O)(=O)Nc2ccsc2C(=O)O)c(CCc2ccccc2)c1 [Example 11, 3-(4-tert-butyl-2-phenethylphenylsulfonamido)thiophene-2-carboxylic acid, disodium salt]
10 | 100 to 500 nM | O=C(O)c1sccc1NS(=O)(=O)c1ccc(C2CCCCC2)cc1 [Example 34, 3-(4-cyclohexylphenylsulfonamido)thiophene-2-carboxylic acid, disodium salt]
11 | > 500 nM | CN(c1ccsc1C(=O)O)S(=O)(=O)c1ccc(C(C)(C)C)cc1 [Example 15, 3-(4-tert-butyl-N-methylphenylsulfonamido)thiophene-2-carboxylic acid, sodium salt]
12 | ≤ 100 nM | CCc1cc(C(C)(C)C)ccc1S(=O)(=O)Nc1ccsc1C(=O)O [Example 48, 3-(4-tert-butyl-2-ethylphenylsulfonamido)thiophene-2-carboxylic acid, disodium salt]
13 | ≤ 100 nM | C=Cc1cc(C(C)(C)C)ccc1S(=O)(=O)Nc1ccsc1C(=O)O [Example 61, 3-(4-tert-butyl-2-vinylphenylsulfonamido)thiophene-2-carboxylic acid, disodium salt]
14 | ≤ 100 nM | CCCCc1ccc(S(=O)(=O)Nc2ccsc2C(=O)O)cc1 [Example 38, 3-[4-(n-butylphenyl)sulfonamide]thiophene-2-carboxylic acid, disodium salt]
15 | 100 to 500 nM | COC/C=C/c1cc(C(C)(C)C)ccc1S(=O)(=O)Nc1ccsc1C(=O)O [Example 55, 3-[4-tert-butyl-2-(3-methoxyprop-1-enyl)phenylsulfonamido]thiophene-2-carboxylic acid, disodium salt]
16 | > 500 nM | Cc1cccc(C)c1-c1cccc(S(=O)(=O)Nc2ccsc2C(=O)O)c1 [Example 41, 3-(2′,6′-dimethylbiphenyl-3-ylsulfonamido)thiophene-2-carboxylic acid, disodium salt]
17 | ≤ 100 nM | O=C(O)c1sccc1NS(=O)(=O)c1ccc(OC(F)(F)F)cc1Cl [Example 50, 3-[2-chloro-4-(trifluoromethoxy)phenylsulfonamido]thiophene-2-carboxylic acid, disodium salt]
18 | > 500 nM | CC1(C)CCC(C)(C)c2cc(S(=O)(=O)Nc3ccsc3C(=O)O)ccc21 [Example 49, 3-(5,5,8,8-tetramethyl-5,6,7,8-tetrahydronaphthalene-2-sulfonamido)thiophene-2-carboxylic acid, disodium salt]
19 | ≤ 100 nM | CC(C)(C)c1ccc(S(=O)(=O)Nc2ccsc2C(=O)O)c(C#N)c1 [Example 10, 3-(4-tert-butyl-2-cyanophenylsulfonamido)thiophene-2-carboxylic acid, disodium salt]
20 | ≤ 100 nM | O=C(O)c1sccc1NS(=O)(=O)c1ccc(C2CCCC2)cc1F [Example 36, 3-(4-cyclopentyl-2-fluorophenylsulfonamido)thiophene-2-carboxylic acid, disodium salt]
21 | 100 to 500 nM | CC(C)(C)c1ccc(S(=O)(=O)Nc2c(C(=O)O)sc3ccccc23)cc1 [Example 24, 3-(4-tert-butylphenylsulfonamido)benzo[b]thiophene-2-carboxylic acid, disodium salt]
22 | > 500 nM | CC(C)(C)c1ccc(S(=O)(=O)Nc2ccsc2C(=O)O)c(-c2ccccc2)c1 [Example 46, 3-(5-tert-butylbiphenyl-2-ylsulfonamido)thiophene-2-carboxylic acid, disodium salt]
23 | > 500 nM | CC(C)(C)c1ccc(S(=O)(=O)Nc2ccsc2C(=O)O)c(-c2ccc(Cl)cc2)c1 [Example 2, 3-(5-tert-butyl-4′-chlorobiphenyl-2-ylsulfonamido)thiophene-2-carboxylic acid, disodium salt]
24 | > 500 nM | Cc1cc(C(C)(C)C)cc(C)c1S(=O)(=O)Nc1ccsc1C(=O)O [Example 62, 3-(4-tert-butyl-2,6-dimethylphenylsulfonamido)thiophene-2-carboxylic acid, disodium salt]
25 | > 500 nM | CC(C)(C)c1ccc(S(=O)(=O)Nc2ccsc2C(=O)O)c(/C=C/C(=O)O)c1 [Example 30, 3-[4-tert-butyl-2-(2-carboxyvinyl)phenylsulfonamido]thiophene-2-carboxylic acid, trisodium salt]
26 | > 500 nM | Cc1cc(S(=O)(=O)Nc2ccsc2C(=O)O)ccc1N1CCCC1 [Example 32, 3-(3-methyl-4-(pyrrolidin-1-yl)phenylsulfonamido)thiophene-2-carboxylic acid, disodium salt]
27 | > 500 nM | O=C(O)c1sccc1NS(=O)(=O)c1cccc(-c2ccccc2)c1 [Example 40, 3-(biphenyl-3-ylsulfonamido)thiophene-2-carboxylic acid, disodium salt]
28 | > 500 nM | Cc1cc(C)cc(-c2cccc(S(=O)(=O)Nc3ccsc3C(=O)O)c2)c1 [Example 42, 3-(3′,5′-dimethylbiphenyl-3-ylsulfonamido)thiophene-2-carboxylic acid, disodium salt]
29 | 100 to 500 nM | CC(C)(C)c1ccc(S(=O)(=O)Nc2ccsc2C(=O)O)c(N2CCCCC2)c1 [Example 47, 3-[4-tert-Butyl-2-(piperidin-1-yl)phenylsulfonamido]thiophene-2-carboxylic acid]
30 | > 500 nM | CC(C)(C)c1ccc(S(=O)(=O)Nc2ccsc2C(=O)O)c(-c2ccncc2Cl)c1 [Example 45, 3-[4-tert-Butyl-2-(3-chloropyridin-4-yl)phenyl-sulfonamido]thiophene-2-carboxylic acid]

Row | SMILES | IC50
31 | CC(=O)Oc1cc(C(C)(C)C)ccc1S(=O)(=O)Nc1ccsc1C(=O)O [Example 12, 3-(2-acetoxy-4-tert-butylphenylsulfonamido)thiophene-2-carboxylic acid, disodium salt] | 100 to 500 nM
